This note sets out measurements from ChEMBL document CHEMBL1131762, “Synthesis and identification of conformationally constrained selective MMP inhibitors” (Bioorg Med Chem Lett, 1999).

Experiment [1] concerns the target Neutrophil collagenase (Homo sapiens, UniProt P22894). Put plainly: Inhibition of human recombinant matrix metalloprotease-8 (hMMP-8).
Experiment [2] has as its target T1, Interstitial collagenase (Homo sapiens, UniProt P03956).
T1 sequence (P03956 whole entry): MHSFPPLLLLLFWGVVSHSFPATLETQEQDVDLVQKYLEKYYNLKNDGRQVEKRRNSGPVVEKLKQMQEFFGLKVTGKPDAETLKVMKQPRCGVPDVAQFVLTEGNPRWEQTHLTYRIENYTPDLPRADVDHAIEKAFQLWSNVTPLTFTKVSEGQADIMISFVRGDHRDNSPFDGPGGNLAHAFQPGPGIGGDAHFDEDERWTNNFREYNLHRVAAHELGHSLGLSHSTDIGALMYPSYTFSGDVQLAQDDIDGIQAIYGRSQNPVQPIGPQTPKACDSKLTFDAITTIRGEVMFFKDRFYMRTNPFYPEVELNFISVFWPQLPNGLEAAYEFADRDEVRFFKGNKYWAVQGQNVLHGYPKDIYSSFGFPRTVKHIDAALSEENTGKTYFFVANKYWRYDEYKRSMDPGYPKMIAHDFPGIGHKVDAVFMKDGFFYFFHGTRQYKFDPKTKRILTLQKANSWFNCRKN
Put plainly: Inhibition of human recombinant matrix metalloprotease-1 (hMMP-1).

Experiment [3] has as its target Collagenase 3 (Homo sapiens, UniProt P45452). Kind of experiment: Inhibition of human recombinant matrix metalloprotease-13 (hMMP-13).

Neutrophil collagenase, sequence (P22894 whole entry): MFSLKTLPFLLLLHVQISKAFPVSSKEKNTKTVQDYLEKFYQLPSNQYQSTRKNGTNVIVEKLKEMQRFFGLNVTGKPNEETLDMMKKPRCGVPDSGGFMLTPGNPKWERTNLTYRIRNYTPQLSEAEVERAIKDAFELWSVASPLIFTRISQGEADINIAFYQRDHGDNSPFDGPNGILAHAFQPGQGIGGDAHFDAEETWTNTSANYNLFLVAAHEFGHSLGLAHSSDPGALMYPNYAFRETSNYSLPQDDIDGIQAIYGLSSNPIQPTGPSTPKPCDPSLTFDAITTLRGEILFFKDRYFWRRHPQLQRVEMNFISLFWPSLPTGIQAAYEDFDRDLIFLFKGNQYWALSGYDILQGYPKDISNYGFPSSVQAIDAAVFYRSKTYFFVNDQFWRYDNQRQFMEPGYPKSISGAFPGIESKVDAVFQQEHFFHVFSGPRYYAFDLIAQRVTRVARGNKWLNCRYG

In general, IC50 refers to the concentration that gives 50% inhibition. In the case of `COc1ccc(S(=O)(=O)C2CCCC(S)C2)cc1` (centres undefined), the IC50 in experiment [1] turned out to be 585 nM; in experiment [2], 1000 nM. In the case of `O=S(=O)(c1ccc(Sc2ccccc2)cc1)C1CCCC(S)C1` (centres undefined), the IC50 in experiment [1] is 50 nM; in experiment [2], over 10000 nM. In the case of `O=S(=O)(c1ccc(Oc2ccccc2)cc1)C1CCCC(S)C1` (centres undefined), the 50% inhibitory concentration (IC50) in experiment [1] is 8 nM; in experiment [2], 1700 nM; in experiment [3] it was 1 nM.

On to `COc1ccc(S(=O)(=O)C2CCC(S)C2)cc1` (centres undefined), for which the IC50 in experiment [2] was over 10000 nM.

In the case of `COc1ccc(S(=O)(=O)CCCS)cc1`, the IC50 in experiment [1] was 1100 nM.
